Experimental findings from US20150020916A1, “Antiperspirant Spray Devices and Compositions” (The Procter & Gamble Company, priority 2013, published 2015) are described below.

The text on this series: Solubility may be determined by measuring the amount of light transmittance (a light transmittance value) through a simple mixture of the non-volatile silicone fluid and liquid activation enhancer at the same weight/weight concentrations as in a final antiperspirant composition.
Solubility of a liquid activation enhancer in a non-volatile silicone may be determined by measuring the amount of light transmittance (light transmittance value) through a simple mixture of the non-volatile silicone fluid and liquid activation enhancer at the same weight/weight concentrations as in a final antiperspirant composition.
The Spectronic Genesys 10 Vis utilizes a tungsten-halogen light source and has a spectral bandwidth of 5 nm, a wavelength range of 325 to 1100 nm, accuracy of ±1 nm and a repeatability of ±0.5 nm. Readouts include absorbance, transmittance and concentration. The spectrophotometer is set to 640 nm wavelength and the percent transmittance mode/readout. Polystyrene spectrometer cuvettes having a 1 cm optical light path and transmittance between ˜340 nm and ˜900 nm are used. One suitable example of a spectrometer cuvette is available from VWR International LLC under Catalog #97000-584 having a 2.5 to 4.5 ml capacity. The spectrophotometer is calibrated according to the manufacturer's instructions using a reference cuvette and composition comprised of just the non-volatile silicone fluid of interest. For example, if the test composition comprises 50 centistoke dimethicone and 15% w/w of isopropyl myristate, then the spectrometer is calibrated using a cuvette containing just 50 centistoke dimethicone. Sample cuvettes are filled sufficiently with a test composition of a non-volatile silicone fluid and liquid activation enhancer so that the light path of the spectrophotometer passes through the test composition in the cuvette. The sample cuvettes are shaken well just prior to taking a light transmittance reading.

`CCCCCCCCCCCCCCCCCC(=O)OCCCC` [butyl stearate]: the light transmittance value entry is “about 100%”. Regarding `CCCCCCCCCCCCCC(C)C` [isohexadecane], the light transmittance value entry is listed as “about 100%” and the “solubility in 50 centistoke dimethicone” value is reported as “soluble”. In the case of `CCCCCCCCCCCCCC(=O)OC(C)C` [isopropyl myristate], the light transmittance value result is “about 101%”. As to `CCCCCCCCCCCCCCCC(=O)OC(C)C` [isopropyl palmitate], the light transmittance value entry is recorded as “about 101%”. In the case of `CCCCCCCCCCC(CO)CCCCCCCC` (centres unmarked) [octyldodecanol], the “solubility in 50 centistoke dimethicone” value is recorded as “soluble in the 50 centistoke dimethicone at some (lower) concentrations”. PPG-14 butyl ether: the “solubility in 50 centistoke dimethicone” value is “insoluble”. The same measure, in the same setting: with mineral oil the entry was “soluble in 50 centistoke dimethicone at some (lower) concentrations”.
